Assay results from patent publication US6858633B1, “Substituted 2-arylbenzazole compounds and their use as antitumour agents” (Cancer Research Technology Limited, priority 1999, dated 2005).

Tests used:
[1] = system: certain human breast cancer cell lines; conditions: WO 95/06469; cited from earlier work
[2] = rat, in vivo, iv, 25 mg/kg
MCF-7 cells = assay: Conversion of prodrug to parent in culture of MCF-7 cells; assay type: cell-based
[3] = Stability in plasma in vitro; assay type: in vitro ADME, rat; conditions: rat, plasma
MDA468 = assay: In vitro cytotoxicity, 3-day MTT assay, MDA468; assay type: cell-based; conditions: n=8
Protocol: (§1) In carrying out the following cytoloxicity assays, the method used corresponds substantially to the following example: • Cells were maintained in a continuous logarithmic culture in RMPI 1640 with L-glutamine medium, supplemented with 10% fetal calf serum, penicillin (100 IU/ml) and streptomycin (100 μg/ml). The cells were mildly trypsinized for passage and for use in assays. • On day one, 180 μl of trypsinized tumour cells (5×10^3 ml^−1) were placed in the wells of 96-well, flat-bottom microtiter plates. Columns 1 and 12 were filled with 300 μl medium to protect from evaporation. The plates were incubated for 24 hours at 37° C. and 5% CO2 in air to allow the cells to adhere and resume exponential growth prior to the addition of drugs. The compounds being tested were dissolved in DMSO and stored as 10 mM stock solutions at 4° C., protected from light. […] 20 μl of drug dilution was added to the other wells with the lowest concentration in column 3 and the highest concentration in column 11. The plates were incubated for 72 hours at 37° C. and 5% CO2 in air. Each compound was tested in triplicate. At the time of drug addition, a plate of untreated cells was read to provide an initial optical density value for use in the calculation of the IC50. • On day five the plates were read. 50 μl MTT (1 mg/ml^−1) was added per well and the plates incubated for a further 4 hours. The MTT is metaboliscd to form a blue formazan product. The MTT solution was aspirattd and 125 μl DMSO:glycine buffer (4:1) was added. The plates were placed on a plate shaker until the fornazan crystals had dissolved and absorbance was ready at 550 nm on a plate reader. • For each compound tested, a dose response curve was obtained and the IC50 statue (drug concentration at 50% inhibition of cell growth) was calculated.
(§2) (n=8) for a range of compounds in relation to MCF-7 and MDA 468 cell lines.

MCF-7 = assay: In vitro cytotoxicity, 3-day MTT assay, MCF-7; assay type: cell-based, human; conditions: 3-day MTT assay, n=8
Protocol: as §1, §2

[4] = Blood parameters and liver transaminases in xenograft studies; parameters: species or system nude mice; conditions: mouse, in vivo
[5] = Plasma concentrations after administration to mice; assay type: in vivo; conditions: mouse, 70 μmol/kg, read-out: Geometric Mean Plasma Concentration
COLO205 xenografts = assay: In vivo COLO205 xenograft study (FIG. 2)
sensitive cell lines = assay: Biphasic dose-response relationship (second growth phase) in sensitive cell lines; assay type: cell-based
From the text: One feature of the prior art compounds is that they show a biphasic dose-response relationship specifically in sensitive cell lines: cell kill occurs at low nanomolar concentrations of the compounds, followed by a potentially undesirable proliferative response at low micromolar concentrations (termed the “second growth phase”).

[6] = system: ER positive MCF-7 human breast tumor xenografts
[7] = system: ER negative MT-1 human breast tumor xenografts
[8] = system: cell lines that relate to a range of various mammalian cancers other than human breast cancer; conditions: WO 96/26932; cited from earlier work

Nc1ccc(-c2nc3ccccc3s2)cc1 [CJM 126, 2-(4′-aminophenyl)benzothiazole]
specific inhibitory activity in human breast cancer cell lines [1]: remarkably high specific inhibitory activity

Cc1cc(-c2nc3cc(F)ccc3s2)ccc1NC(=O)C(N)CCCCN.Cl.Cl (centres unmarked) [Compound Iad, 5-Fluoro-2-(4′-amino-3′-methylphenyl)benzothiazole Lysyl Amide Dihydrochloride Salt]
removal from plasma and reconversion to parent compound in vivo [2]: readily removed from such plasma and reconverted to their parent compound in vivo
concentration of parent compound 5F203 after addition of prodrug to MCF-7 culture (MCF-7 cells): progressive increase in concentration of the parent compound 5F203
stability in plasma in vitro [3]: stable
IC50 (MDA468): 0.158 µM
IC50 (MCF-7): 0.04 µM

Cc1cc(-c2nc3cc(F)ccc3s2)ccc1N [Compound Ik, 5-Fluoro-2-(4′-amino-3′-methylphenyl)benzothiazole]
blood parameters (white blood cell and platelet counts) and level of liver transaminases [4]: not adversely affected
concentration at 3.5 min ([5]; mean sample time 3.5 min): 1.18 µM
concentration at 6.5 min ([5]; mean sample time 6.5 min): 1.53 µM
concentration at 9.5 min ([5]; mean sample time 9.5 min): 1.84 µM
concentration at 12.5 min ([5]; mean sample time 12.5 min): 2.27 µM
concentration at 15.5 min ([5]; mean sample time 15.5 min): 3.27 µM
concentration at 20.8 min ([5]; mean sample time 20.8 min): 2.68 µM
concentration at 30.5 min ([5]; mean sample time 30.5 min): 3.77 µM
concentration at 45.4 min ([5]; mean sample time 45.4 min): 3.41 µM
concentration at 60.5 min ([5]; mean sample time 60.5 min): 4.11 µM
concentration at 90.6 min ([5]; mean sample time 90.6 min): 3.52 µM
concentration at 120.5 min ([5]; mean sample time 120.5 min): 2.63 µM
concentration at 240 min ([5]; mean sample time 240.0 min): 1 µM
concentration at 360 min ([5]; mean sample time 360.0 min): 0.59 µM
tumour growth inhibition, COLO205 xenografts (FIG. 2) (COLO205 xenografts): tumour growth inhibition observed
biphasic dose-response (second growth phase) (sensitive cell lines): the biphasic response is eliminated
IC50 (MDA468; 72 h): < 0.0001 µM
toxicity in MCF-7 xenograft study ([6]; 12.5 mg/kg, i.p.): toxic
tumour growth inhibition, MCF7 xenografts (FIG. 1) [6]: Tumour growth inhibition observed
growth inhibition of MCF-7 xenografts ([6]; given i.p.): Significant growth inhibition
toxicity in MT-1 xenograft study ([7]; 25 mg/kg, parent compounds): toxic
tumor growth inhibition in MT-1 xenografts ([7]; dose dependence): dose-dependent tumor growth inhibition
weight loss in MT-1 xenograft study ([7]; dose dependence): weight loss
IC50 (MCF-7; Homo sapiens, MCF7, 72 h): < 0.0001 µM

Cc1cc(-c2nc3ccccc3s2)ccc1N [DF203, 2-(4′-amino-3′-methylphenyl)benzothiazole, reference compound]
anti-proliferative activity in cell lines of cancers other than human breast cancer [8]: exhibit anti-proliferative activity selectively
tumour growth inhibition, MCF7 xenografts (FIG. 1) [6]: Tumour growth inhibition observed
